Measured values as given in PMC4627231, “Targeting the sugar metabolism of tumors with a first-in-class 6-phosphofructo-2-kinase (PFKFB4) inhibitor” (Oncotarget, 2015).

What was measured:
[1] = biological target: human recombinant PFKFB4 (Homo sapiens, UniProt Q16877); experiment: In vitro kinase assay with purified recombinant human PFKFB4; assay type: biochemical; settings: Lineweaver-Burk analyses
Experimental: Figure 1 Compound 5MPN inhibits recombinant PFKFB4 enzyme activity A. Representation of the 5MPN molecule docked in the crystal structure of rat testes PFKFB4. 5MPN is shown in thicker stick representation than the surrounding protein residues. B. Molecular structure of 5MPN (MW, 305.3 Da). In vitro kinase assays using purified recombinant human PFKFB4 were performed as described in the presence or absence of 0.1, 1 or 10 μM 5MPN. Michaelis-Menten C. and Lineweaver-Burk double reciprocal D. plots examining PFKFB4 enzyme activity as a function of F6P concentration (0 - 2000 μmol/L) are shown. E. In vitro kinase assays using purified recombinant human PFKFB3 were performed as described in the presence or absence of 0.1, 1 or 10 μM 5MPN and the Michaelis-Menten plot examining PFKFB3 enzyme activity as a function of F6P concentration (0 - 400 μmol/L) is shown. Data shown are representative of three independent experiments. […] The activity of 5MPN against 97 kinases was examined using a commercially available active-site dependent competition binding assay core service (KINOMEscanEDGE) that quantifies the capacity of test agents to compete with an immobilized, active-site directed ligand using a DNA-tagged kinase and immobilized ligand and compound.

[2] = tested on: panel of 97 protein kinases; experiment: KINOMEscan active-site dependent competition binding assay; settings: 10 μM, data not shown
Experimental: The fructose-6-phosphate kinase activity of human recombinant PFKFB4 and human recombinant PFKFB3 in the presence of DMSO ± indicated concentrations of 5MPN was assayed as previously described. The activity of 5MPN against 97 kinases was examined using a commercially available active-site dependent competition binding assay core service (KINOMEscanEDGE) that quantifies the capacity of test agents to compete with an immobilized, active-site directed ligand using a DNA-tagged kinase and immobilized ligand and compound.

[3] = tested on: ATP in H460 cells; experiment: Intracellular ATP measurement; assay type: cell-based, human; settings: 10 μM, 6-72 hours
Experimental: Cells were lysed and intracellular ATP determined as described previously. All data are expressed as the mean ± SD of three experiments. Statistical significance was assessed by the two-sample t test (independent variable).

[4] = tested on: Large T antigen-immortalized, tamoxifen-inducible PFKFB4-/- fibroblasts; experiment: Viable cell count (trypan blue exclusion); assay type: cell-based, mice; settings: fibroblasts ± 10 μM 4HT, 10 μM 5MPN, 24 hours
Description: H460, H1299, H441, H522 and A549 non-small cell lung cancer (NSCLC), MDA-MB-231 (breast), LNCaP (prostatic) and HCT116 (colon) adenocarcinoma and Lewis lung carcinoma (LLC) cell lines were obtained from ATCC (authenticated by STR analysis) and were used within 6 months of acquisition. PFKFB4^−/− ear pinna fibroblasts isolated from TamCre/loxP/PFKFB4^−/− mice were immortalized as described previously. Normal bronchial epithelial cells (NHBE) were obtained from Lonza and NHBE cells expressing telomerase, SV40 large T antigen and activated Ras (hT/LT/Ras) were a gift from Dr. B. J. Rollins, Dana Farber Cancer Institute. All cell lines were tested and found negative for mycoplasma (PCR Mycoplasma Detection Kit, ABM). Cell lines were grown in DMEM (A549, LNCaP, MDA-MB-231, LLC and PFKFB4^−/−), RPMI 1640 (H460, H1299, H441, H522) and McCoy's 5A media (HCT116) (all from Invitrogen) containing 10% fetal calf serum (Hyclone). NHBE and hT/LT/Ras cells were grown in BEGM containing SingleQuots (Lonza). All lines were cultured at 37°C in 5% CO2. […]
Viability was determined using trypan blue exclusion as previously described. […] Cells excluding trypan blue were counted using a standard hemocytometer (Hausser Scientific) to determine total numbers of viable cells. Data are expressed as mean ± SD of three experiments.

[5] = Pharmacokinetic profile after IV and oral administration; assay type: in vivo; settings: mouse, female C57BL/6 mice, plasma
Experimental: The pharmacokinetic profile was determined in female C57BL/6 mice (Charles River Laboratories) following IV and oral administration of 5MPN. Using only female mice lowered the animal numbers required for meaningful results without issues of potential gender differences in exposure. Eight time points (n=3 per time point) were used to determine indicated PK parameters calculated using WinNonLin v5.0. Plasma samples were extracted using acetonitrile and analyzed by LC/MS-MS using a PhenomexSynergi Polar-RP 4micron 50×2.0 mm column eluted with a biphasic mobile phase (0.5% formic acid in acetonitrile and water).

[6] = tested on: C57BL/6 mice; experiment: Two-week oral toxicity study; assay type: in vivo; settings: 120 mg/kg PO, two weeks
Experimental: Given the potential usefulness of oral administration in terms of cost and convenience, we elected to pursue this route in subsequent toxicity and efficacy pre-clinical studies. Initially, we dosed C57BL/6 mice with 120 mg/kg PO (dose chosen based on a dose escalation trial) for two weeks and analyzed the effect on complete blood counts, electrolytes, hepatic and renal function, body mass and the gross and histological appearance of the brain, heart, lungs, liver, kidneys and spleen. […] We confirmed that 5MPN caused a G1 arrest in LLC cells in vitro similar to H460 cells (Figure 4G) and then examined the number of Ki67-positive cells since Ki67 expression correlates with later S and G2 phases of the cell cycle.

Chain of human recombinant PFKFB4 (Q16877 whole entry): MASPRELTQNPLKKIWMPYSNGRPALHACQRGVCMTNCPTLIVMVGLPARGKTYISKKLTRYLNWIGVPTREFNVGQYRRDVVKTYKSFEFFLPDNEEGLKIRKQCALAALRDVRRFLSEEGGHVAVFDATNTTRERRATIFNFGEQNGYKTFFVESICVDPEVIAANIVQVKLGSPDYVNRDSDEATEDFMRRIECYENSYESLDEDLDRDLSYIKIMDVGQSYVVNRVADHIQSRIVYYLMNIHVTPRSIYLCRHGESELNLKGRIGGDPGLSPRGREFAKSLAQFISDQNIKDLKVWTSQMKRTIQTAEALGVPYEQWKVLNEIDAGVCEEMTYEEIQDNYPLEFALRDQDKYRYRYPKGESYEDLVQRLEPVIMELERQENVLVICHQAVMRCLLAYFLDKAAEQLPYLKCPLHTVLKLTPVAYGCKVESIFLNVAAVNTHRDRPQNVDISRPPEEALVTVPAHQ

For COc1cccc2c(NCCCCCO[N+](=O)[O-])ccnc12 [Compound 5MPN, 5-(n-(8-methoxy-4-quinolyl)amino)pentyl nitrate], the mode of inhibition [1] was “competitive inhibitor of the F6P binding site”, the Ki ([1]; F6P as substrate, read-out: Ki for 5MPN inhibition) was 8.6 ± 1.9 µM and the “inhibition of a panel of 97 protein kinases” value [2] was “not inhibited”. For the same molecule, the “effect on ATP” value [3] was “reduced”, the “effect of genomic deletion of Pfkfb4 on anti-proliferative effect” value [4] was “sensitized” and the AUC(0-inf) ([5]; iv, 2 mg/kg, I.V.) was 114 ng·h/mL. It also gave an AUC(0-t) ([5]; iv, 2 mg/kg, I.V.) of 111 ng·h/mL, a C0 ([5]; iv, 2 mg/kg, I.V.) of 249 ng/mL and a half-life ([5]; iv, 2 mg/kg, I.V.) of 0.387 h. For the same molecule, the Vd ([5]; iv, 2 mg/kg, I.V., read-out: Vss) was 8.48 L/kg, the MRT ([5]; iv, I.V.) was 0.485 h and the clearance ([5]; iv, I.V.) was 291 mL/min/kg. The MRT ([5]; po, 10 mg/kg, P.O) was 2.31 h, the AUC(0-inf) ([5]; po, P.O) was 234 ng·h/mL and the AUC(0-t) ([5]; po, P.O) was 225 ng·h/mL. It also gave a Cmax ([5]; po, P.O) of 98.7 ng/mL, a bioavailability ([5]; po, P.O) of 40.9% and a half-life ([5]; po, P.O) of 1.67 h. For the same molecule, the “signs of toxicity (blood counts, electrolytes, hepatic and renal function, body mass, organ histology, behavior)” value [6] was “no signs of toxicity”.
